Results: PubChem BioAssay AID1963962 (Molecular Pharmacology Branch, DTP, NCI, 2024)
pIC50: −log10 of the molar value. Where “and” joins values, the source holds several entries; their conditions need not be identical. Equal entries are not always repeated. Values belong to the compound of their own block, whether it stands above or below them.

System: 967376-340-R-J2-PDC multicell spheroid viability
Assay: Anticancer human tumor 967376-340-R-J2-PDC patient-derived colon adenocarcinoma cell line growth inhibition [PI3K]
Conditions: for viability, T/C: stronger effect = lower value
Procedure, shortened: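 Viability of mixed-cell spheroids was determined after exposure to pairwise combinations, one partner being inavolisib, alpelisib, duvelisib or copanlisib. Highest tested concentration matched clinical Cmax where known and 10 microM where not, descending in half-log steps.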

[1] = curve of first compound, second compound 0.00316 µM
[2] = curve of first compound, second compound 0.01 µM
[3] = curve of first compound, second compound 0.0316 µM
[4] = curve of first compound, second compound 0.1 µM
[5] = curve of first compound, second compound 0.316 µM
[6] = curve of first compound, second compound 1 µM
[7] = second compound 0.00316 µM, first compound 0.0316 µM
[8] = second compound 0.00316 µM, first compound 0.1 µM
[9] = second compound 0.00316 µM, first compound 0.316 µM
[10] = second compound 0.00316 µM, first compound 1 µM
[11] = second compound 0.00316 µM, first compound 3.16 µM
[12] = second compound 0.00316 µM, first compound 10 µM
[13] = second compound 0.01 µM, first compound 0.0316 µM
[14] = second compound 0.01 µM, first compound 0.1 µM
[15] = second compound 0.01 µM, first compound 0.316 µM
[16] = second compound 0.01 µM, first compound 1 µM
[17] = second compound 0.01 µM, first compound 3.16 µM
[18] = second compound 0.01 µM, first compound 10 µM
[19] = second compound 0.0316 µM, first compound 0.0316 µM
[20] = second compound 0.0316 µM, first compound 0.1 µM
[21] = second compound 0.0316 µM, first compound 0.316 µM
[22] = second compound 0.0316 µM, first compound 1 µM
[23] = second compound 0.0316 µM, first compound 3.16 µM
[24] = second compound 0.0316 µM, first compound 10 µM
[25] = second compound 0.1 µM, first compound 0.0316 µM
[26] = second compound 0.1 µM, first compound 0.1 µM
[27] = second compound 0.1 µM, first compound 0.316 µM
[28] = second compound 0.1 µM, first compound 1 µM
[29] = second compound 0.1 µM, first compound 3.16 µM
[30] = second compound 0.1 µM, first compound 10 µM
[31] = second compound 0.316 µM, first compound 0.0316 µM
[32] = second compound 0.316 µM, first compound 0.1 µM
[33] = second compound 0.316 µM, first compound 0.316 µM
[34] = second compound 0.316 µM, first compound 1 µM
[35] = second compound 0.316 µM, first compound 3.16 µM
[36] = second compound 0.316 µM, first compound 10 µM
[37] = second compound 1 µM, first compound 0.0316 µM
[38] = second compound 1 µM, first compound 0.1 µM
[39] = second compound 1 µM, first compound 0.316 µM
[40] = second compound 1 µM, first compound 1 µM
[41] = second compound 1 µM, first compound 3.16 µM
[42] = second compound 1 µM, first compound 10 µM
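Further: spheroids exposed to agents for 7 days before read-out.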
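Wherever viability, T/C is given: luminescence used as surrogate of cell viability.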

pIC50 (curve of compound): < 5.00
SMILES: CC1(C)CCC(CN2CCN(c3ccc(C(=O)NS(=O)(=O)c4ccc(NCC5CCOCC5)c([N+](=O)[O-])c4)c(Oc4cnc5[nH]ccc5c4)c3)CC2)=C(c2ccc(Cl)cc2)C1
viability, T/C (compound 0.0316 µM): 99.2% [middle of 4 runs]
viability, T/C (compound 0.1 µM): 94.1% [middle of 4 runs]
viability, T/C (compound 0.316 µM): 88.6% [middle of 4 runs]
viability, T/C (compound 1 µM): 88.1% [middle of 4 runs]
viability, T/C (compound 3.16 µM): 89.6% [middle of 4 runs]

pIC50 (curve of compound): < 5.00 and 5.04
SMILES: CCCS(=O)(=O)Nc1ccc(F)c(C(=O)c2c[nH]c3ncc(-c4ccc(Cl)cc4)cc23)c1F
viability, T/C (compound 0.0316 µM): 102% [middle of 4 runs]
viability, T/C (compound 0.1 µM): 87.8% [middle of 4 runs]
viability, T/C (compound 0.316 µM): 94.6% [middle of 4 runs]
viability, T/C (compound 3.16 µM): 104% [middle of 4 runs]
viability, T/C (compound 10 µM): 56.4% [middle of 4 runs]

pIC50 [1]: < 5.00
pIC50 [2]: < 5.00
pIC50 [3]: < 5.00
pIC50 [4]: < 5.00
pIC50 [5]: > 7.50
pIC50 [6]: > 7.50
SMILES: CC(C)NCC(C(=O)N1CCN(c2ncnc3c2C(C)CC3O)CC1)c1ccc(Cl)cc1 (configuration not stated) + COc1c(OCCCN2CCOCC2)ccc2c3n(c(=NC(=O)c4cnc(N)nc4)nc12)CCN3
viability, T/C [7]: 79.8%
viability, T/C [8]: 100%
viability, T/C [9]: 78.2%
viability, T/C [10]: 83.5%
viability, T/C [11]: 73%
viability, T/C [12]: 85.4%
viability, T/C [13]: 90.9%
viability, T/C [14]: 75.4%
viability, T/C [15]: 102%
viability, T/C [16]: 66.9%
viability, T/C [17]: 76%
viability, T/C [18]: 75.5%
viability, T/C [19]: 78.8%
viability, T/C [20]: 61.5%
viability, T/C [21]: 62.5%
viability, T/C [22]: 66.7%
viability, T/C [23]: 82.9%
viability, T/C [24]: 66.4%
viability, T/C [25]: 53.7%
viability, T/C [26]: 54.1%
viability, T/C [27]: 74.5%
viability, T/C [28]: 49%
viability, T/C [29]: 57.9%
viability, T/C [30]: 47.5%
viability, T/C [31]: 38.4%
viability, T/C [32]: 35.5%
viability, T/C [33]: 57.1%
viability, T/C [34]: 33.9%
viability, T/C [35]: 52.5%
viability, T/C [36]: 49.4%
viability, T/C [37]: 48.4%
viability, T/C [38]: 25.3%
viability, T/C [39]: 37.2%
viability, T/C [40]: 26.1%
viability, T/C [41]: 47.6%
viability, T/C [42]: 48.7%

pIC50 [1]: < 7.00
pIC50 [2]: < 7.00
pIC50 [3]: 7.14
pIC50 [4]: 7.18
pIC50 [5]: 7.68
pIC50 [6]: 7.43
SMILES: CC(C)n1nc(-c2ccc3oc(N)nc3c2)c2c(N)ncnc21 + CC(Nc1ccc2c(c1)OCCn1cc(N3C(=O)OCC3C(F)F)nc1-2)C(N)=O
viability, T/C (second compound 0.00316 µM, first compound 0.000316 µM): 82.3%
viability, T/C (second compound 0.00316 µM, first compound 0.001 µM): 69.7%
viability, T/C (second compound 0.00316 µM, first compound 0.00316 µM): 69.4%
viability, T/C (second compound 0.00316 µM, first compound 0.01 µM): 76.4%
viability, T/C [7]: 73.1%
viability, T/C [8]: 51.9%
viability, T/C (second compound 0.01 µM, first compound 0.000316 µM): 106%
viability, T/C (second compound 0.01 µM, first compound 0.001 µM): 90.1%
viability, T/C (second compound 0.01 µM, first compound 0.00316 µM): 67.3%
viability, T/C (second compound 0.01 µM, first compound 0.01 µM): 68.7%
viability, T/C [13]: 68.1%
viability, T/C [14]: 43.3%
viability, T/C (second compound 0.0316 µM, first compound 0.000316 µM): 81.1%
viability, T/C (second compound 0.0316 µM, first compound 0.001 µM): 87%
viability, T/C (second compound 0.0316 µM, first compound 0.00316 µM): 65.4%
viability, T/C (second compound 0.0316 µM, first compound 0.01 µM): 74.4%
viability, T/C [19]: 60.5%
viability, T/C [20]: 45.2%
viability, T/C (second compound 0.1 µM, first compound 0.000316 µM): 67.3%
viability, T/C (second compound 0.1 µM, first compound 0.001 µM): 79.8%
viability, T/C (second compound 0.1 µM, first compound 0.00316 µM): 91.5%
viability, T/C (second compound 0.1 µM, first compound 0.01 µM): 69.5%
viability, T/C [25]: 56.9%
viability, T/C [26]: 46.3%
viability, T/C (second compound 0.316 µM, first compound 0.000316 µM): 57.7%
viability, T/C (second compound 0.316 µM, first compound 0.001 µM): 61.9%
viability, T/C (second compound 0.316 µM, first compound 0.00316 µM): 54.6%
viability, T/C (second compound 0.316 µM, first compound 0.01 µM): 64.7%
viability, T/C [31]: 44.3%
viability, T/C [32]: 33.1%
viability, T/C (second compound 1 µM, first compound 0.000316 µM): 53.9%
viability, T/C (second compound 1 µM, first compound 0.001 µM): 54.8%
viability, T/C (second compound 1 µM, first compound 0.00316 µM): 63.8%
viability, T/C (second compound 1 µM, first compound 0.01 µM): 47.5%
viability, T/C [37]: 54%
viability, T/C [38]: 38.4%

pIC50 [1]: < 5.00
pIC50 [2]: < 5.00
pIC50 [3]: < 5.00
pIC50 [4]: < 5.00
pIC50 [5]: 7.02
pIC50 [6]: > 7.50
SMILES: CC(Cn1ccc(-c2ccc(C#N)c(Cl)c2)n1)NC(=O)c1cc(C(C)O)[nH]n1 (configuration not stated) + COc1c(OCCCN2CCOCC2)ccc2c3n(c(=NC(=O)c4cnc(N)nc4)nc12)CCN3
viability, T/C [7]: 109%
viability, T/C [8]: 117%
viability, T/C [9]: 79.6%
viability, T/C [10]: 93.6%
viability, T/C [11]: 110%
viability, T/C [12]: 86%
viability, T/C [13]: 91.2%
viability, T/C [14]: 77%
viability, T/C [15]: 76.8%
viability, T/C [16]: 91.6%
viability, T/C [17]: 82.7%
viability, T/C [18]: 86.1%
viability, T/C [19]: 81.7%
viability, T/C [20]: 88.1%
viability, T/C [21]: 61.9%
viability, T/C [22]: 57.7%
viability, T/C [23]: 76.4%
viability, T/C [24]: 63.8%
viability, T/C [25]: 78.6%
viability, T/C [26]: 54.4%
viability, T/C [27]: 59.4%
viability, T/C [28]: 67.5%
viability, T/C [29]: 70.5%
viability, T/C [30]: 59.5%
viability, T/C [31]: 64.2%
viability, T/C [32]: 44.9%
viability, T/C [33]: 48.2%
viability, T/C [34]: 46.1%
viability, T/C [35]: 57.4%
viability, T/C [36]: 50.3%
viability, T/C [37]: 36.6%
viability, T/C [38]: 42.4%
viability, T/C [39]: 26.6%
viability, T/C [40]: 47.1%
viability, T/C [41]: 34.4%
viability, T/C [42]: 32.6%

pIC50 (curve of compound): < 7.00
SMILES: CC(=O)c1c(C)c2cnc(Nc3ccc(N4CCNCC4)cn3)nc2n(C2CCCC2)c1=O
viability, T/C (compound 0.000316 µM): 101% [middle of 4 runs]
viability, T/C (compound 0.001 µM): 95.8% [middle of 4 runs]
viability, T/C (compound 0.00316 µM): 103% [middle of 4 runs]
viability, T/C (compound 0.01 µM): 98.9% [middle of 4 runs]
viability, T/C (compound 0.0316 µM): 118% (2×) and 120% and 81.9%
viability, T/C (compound 0.1 µM): 79% [middle of 4 runs]

pIC50 [1]: < 5.00
pIC50 [2]: < 5.00
pIC50 [3]: < 5.00
pIC50 [4]: < 5.00
pIC50 [5]: 6.41
pIC50 [6]: > 7.50
SMILES: CNC(=O)c1ccc(N2C(=S)N(c3ccc(C#N)c(C(F)(F)F)c3)C(=O)C2(C)C)cc1F + COc1c(OCCCN2CCOCC2)ccc2c3n(c(=NC(=O)c4cnc(N)nc4)nc12)CCN3
viability, T/C [7]: 92%
viability, T/C [8]: 90%
viability, T/C [9]: 73.3%
viability, T/C [10]: 93%
viability, T/C [11]: 113%
viability, T/C [12]: 102%
viability, T/C [13]: 90%
viability, T/C [14]: 82.7%
viability, T/C [15]: 65.7%
viability, T/C [16]: 87.3%
viability, T/C [17]: 105%
viability, T/C [18]: 120%
viability, T/C [19]: 78%
viability, T/C [20]: 64.9%
viability, T/C [21]: 64.5%
viability, T/C [22]: 60.9%
viability, T/C [23]: 79.9%
viability, T/C [24]: 66%
viability, T/C [25]: 65.7%
viability, T/C [26]: 64.3%
viability, T/C [27]: 64.5%
viability, T/C [28]: 51%
viability, T/C [29]: 53.3%
viability, T/C [30]: 64.6%
viability, T/C [31]: 50.3%
viability, T/C [32]: 50.3%
viability, T/C [33]: 54.5%
viability, T/C [34]: 34.8%
viability, T/C [35]: 37.5%
viability, T/C [36]: 54.2%
viability, T/C [37]: 35%
viability, T/C [38]: 36.5%
viability, T/C [39]: 39.8%
viability, T/C [40]: 34.6%
viability, T/C [41]: 36.6%
viability, T/C [42]: 28.1%
